Results: patent US11733243B2, “Use of acamprosate to modulate ERK1/2 activation in animal models for FXS and ASD and individuals diagnosed with FXS and ASD” (Indiana University Research and Technology Corporation, priority 2013, dated 2023)
Values joined by “and” are separate entries in the source; they are usually repeats but may differ in a detail not shown here. Equal values may be shown once.

Legend:
[1] = tested on: adult males diagnosed with FXS; conditions: 3 adult males, cited from earlier work
[2] = tested on: patients diagnosed with FXS; assay: 10-week open-label trial of acamprosate in youth with FXS: behavioral outcome measures; format: in vivo, human; set-up: key to mean CGI-I at endpoint: CGI-I score: 1 = very much improved, 2 = much improved; conditions: for Aberrant Behavior Checklist-Social Avoidance (ABC-SA), End point (mean ± SD): baseline 3.3 ± 2.6; for Clinical Global Impressions-Severity (CGI-S), End point (mean ± SD): baseline 4.25 ± 0.45; for Clinical Global Impressions-Severity (CGI-S), End point (mean ± SD) / ADHD Rating Scale 4th Edition (ADHD-RS), End point (mean ± SD): p<0.0001; for Aberrant Behavior Checklist-Social Withdrawal (ABC-SW), End point (mean ± SD): baseline 8.8 ± 5.8, p=0.04 (Table 5: 7.33 ± 5.2, p=0.014); for Aberrant Behavior Checklist-Hyperactivity (ABC-H), End point (mean ± SD): baseline 16.8 ± 9.1, p=0.009; for ADHD Rating Scale 4th Edition (ADHD-RS), End point (mean ± SD): baseline 23.6 ± 10.6; for Vineland Adaptive Behavior Scale (VABS) Communication Domain, End point (mean ± SD): baseline 63.4 ± 10.1, p=0.03; for VABS Expressive Communication Subdomain, End point (mean ± SD): baseline 69.8 ± 23.0; for Social Responsiveness Scale total score (SRS), End point (mean ± SD): baseline 91.3 ± 27.4, p=0.005
From the text: The Institutional Review Board (IRB) at an academic medical center approved this study. Thirteen outpatient males and females aged 5 to 17 years with body weight≥15 kg were recruited for this study. Written informed consent was obtained from each participant's legal guardian (parent for all children in this report), and subjects provided assent when able. Diagnosis of FXS was confirmed by Southern Blot and PCR results consistent with a greater than 200 CGG repeat expansion in the fmr1 gene with at least partial gene methylation. Subjects had to be free of other significant medical conditions. The concomitant use of psychotropic drugs that are not thought to impact glutamate neurotransmission were allowed so long as the patients experienced stable dosing at least 4 weeks prior to baseline. Subjects were required to have a mental age of greater than 18 months as determined by the Stanford-Binet 5th Edition. Additional inclusion criteria included a CGI-S (Guy 1976) score of at least 4 (“Moderately Ill”). Subjects with a Diagnostic and Statistical Manual of Mental Disorders, 4th Edition, Text Revision (DSM-IV-TR) diagnosis of a psychotic disorder, bipolar disorder, or substance use disorder were excluded from the study. Additionally, subjects with a positive urine pregnancy test, creatinine clearance of <30, active seizure disorder, or other significant medical condition were excluded.
A 10-week, prospective, open-label study design was chosen to gather pilot data for potential future larger-scale, double-blind, placebo-controlled studies in this population.
All subjects underwent a screening and baseline visit followed by follow-up visits every 2 weeks during the 10-week open-label trial period. At the end of weeks 1, 3, and 5 the investigators called the parent to assess drug tolerability and to make dose adjustments as indicated. All subjects received 333 mg/day of acamprosate during the first week of the study. The investigators then increased the dosage to a maximum of 1,998 mg/day (weight>50 kg) or 1,332 mg/day (weight<50 kg) over the first six weeks of the study, if optimal clinical response (CGI-I equal to 1 “very much improved”) had not occurred and intolerable adverse effects had not emerged. The dose maintenance phase lasted 4 weeks at the optimal dosage.
The CGI-S assessment was administered at screen and at baseline as part of the eligibility criteria described above. In this study, the rater scored the CGI-S in regard to severity of symptoms commonly noted in FXS including, but not limited to, inattention/hyperactivity, social impairment, communication impairment, repetitive behavior, irritability, and anxiety. The CGI-S is rated on a scale from 1 to 7 (1=normal, not ill at all; 2=borderline ill; 3=mildly ill; 4=moderately ill; 5=markedly ill; 6=severely ill; 7=among the most extremely ill patients with FXS). The Autism Diagnostic Observation Schedule (ADOS) (Lord, Rutter et al. 1989) was administered at baseline to characterize potential concomitant ASD diagnosis.
The primary outcome measure was the CGI-I. The CGI-I is a scale designed to assess global change from baseline. […] Treatment response was defined by a CGI-I score of 1 “very much improved” or 2 “much improved.” In this study, the CGI-I was utilized as a general global primary outcome measure given the uncertainty as to what specific symptoms/behaviors associated with FXS may be expected to improve or worsen with use of acamprosate. The CGI-I was administered at all visits after baseline.
Secondary outcome measures included all subscales of the ABC (Irritability, Social Withdrawal, Stereotypy, Hyperactivity, and Inappropriate Speech). The ABC is an informant-rated (primary caregiver) measure with confirmed reliability and validity with regard to factor structure, distribution of scores, and sensitivity to change in persons with developmental disability (Aman, Singh et al. 1985). […]

[3] = tested on: glutamate or GABA receptors subtypes; conditions: clinically relevant concentrations; cited from earlier work
[4] = FXS, n=12, 10 weeks, listed as acamprosate
[5] = FXS, mean change from baseline to endpoint divided by SD at baseline

Compound: CC(=O)NCCCS(=O)(=O)O [Acamprosate, 3-Acetamidopropane-1-sulfonic acid]
- clinical response measured by the CGI-I ([1]; mean dose 1,221 mg/day, mean duration 21.3 weeks): all 3 subjects showed significant positive clinical response
- subjects with non-treatment limiting gastrointestinal distress (emesis and/or nausea) [1]: Two
- Treatment responders (CGI-I score of 1 very much improved or 2 much improved) ([2]; 12 youth with FXS, 10 weeks, mean final dose 1054 mg/day): 75%
- Other subscales of the ABC and the CY-BOCS-PDD ([2]; FXS, 10 weeks): did not change significantly during treatment
- SRS Social Awareness and Autistic Mannerisms subscales ([2]; FXS, 10 weeks): Improvement was not noted
- decline of mean ABC-H score, baseline to endpoint ([2]; FXS, 10 weeks): 35%
- decline of mean ABC-SA score, baseline to endpoint ([2]; FXS, 10 weeks): 51%
- decline of mean ABC-SW score, baseline to endpoint ([2]; FXS, 10 weeks): 53%
- decline of mean ADHD-RS score, baseline to endpoint ([2]; FXS, 10 weeks): 29%
- decline of mean total SRS raw score, baseline to endpoint ([2]; FXS, 10 weeks): 16%
- improvement of mean VABS Communication Domain standard score ([2]; FXS, 10 weeks): 5%
- improvement of mean VABS Expressive Communication score ([2]; FXS, 10 weeks): 13%
- other domains of the VABS ([2]; FXS, 10 weeks): No other changes with treatment were noted
- Peabody Picture Vocabulary Test (PPVT), End point (mean ± SD) ([2]; FXS, 10 weeks, baseline 85.2 ± 32.0, p=0.53): did not significantly change with treatment
- decline of SRS Social Motivation subscale ([2]; FXS, 10 weeks, p=0.003): 28%
- decline of SRS Social Cognition subscale ([2]; FXS, 10 weeks, p=0.01): 19%
- decline of SRS Social Communication subscale ([2]; FXS, 10 weeks, p=0.01): 14%
- mean CGI-I at endpoint ([2]; FXS, Week 10, scale 1-7): 1.92 and 1.9
- Aberrant Behavior Checklist-Social Avoidance (ABC-SA), End point (mean ± SD) ([2]; FXS, n=12, 10 weeks, p=0.01): 1.6 ± 2.7
- Aberrant Behavior Checklist-Social Avoidance (ABC-SA), End point (mean ± SD) ([2]; FXS, n=12, 10 weeks, p=0.01, listed as acamprosate): 1.6
- Clinical Global Impressions-Severity (CGI-S), End point (mean ± SD) ([2]; FXS, n=12, 10 weeks): 3.33 ± 0.5 and 3.33 ± 0.49
- Clinical Global Impressions-Severity (CGI-S), End point (mean ± SD) [2, 4]: 3.33
- Aberrant Behavior Checklist-Inappropriate Speech (ABC-IS), End point (mean ± SD) ([2]; FXS, n=12, 10 weeks, baseline 5.2 ± 3.5, p=0.61): 4.8 ± 3.4
- Aberrant Behavior Checklist-Social Withdrawal (ABC-SW), End point (mean ± SD) ([2]; FXS, n=12, 10 weeks): 4.1 ± 6.5
- Aberrant Behavior Checklist-Social Withdrawal (ABC-SW), End point (mean ± SD) [2, 4]: 4.1
- Aberrant Behavior Checklist-Irritability (ABC-I), End point (mean ± SD) ([2]; FXS, n=12, 10 weeks, baseline 9.9 ± 7.8, p=0.11): 7.0 ± 8.9
- Children's Yale-Brown Obsessive Compulsive Scale Modified for PDD (CY-BOCS-PDD), End point (mean ± SD) ([2]; FXS, n=12, 10 weeks, baseline 11.1 ± 2.6, p=0.15): 9.8 ± 4.1
- Aberrant Behavior Checklist-Hyperactivity (ABC-H), End point (mean ± SD) ([2]; FXS, n=12, 10 weeks): 11.0 ± 8.6
- Aberrant Behavior Checklist-Hyperactivity (ABC-H), End point (mean ± SD) [2, 4]: 11.0
- ADHD Rating Scale 4th Edition (ADHD-RS), End point (mean ± SD) ([2]; FXS, n=12, 10 weeks): 16.7 ± 8
- ADHD Rating Scale 4th Edition (ADHD-RS), End point (mean ± SD) [2, 4]: 16.7
- Vineland Adaptive Behavior Scale (VABS) Communication Domain, End point (mean ± SD) ([2]; FXS, n=12, 10 weeks): 66.6 ± 11.2
- Vineland Adaptive Behavior Scale (VABS) Communication Domain, End point (mean ± SD) [2, 4]: 66.6
- VABS Expressive Communication Subdomain, End point (mean ± SD) ([2]; FXS, n=12, 10 weeks, p=0.003): 78.9 ± 21.2
- VABS Expressive Communication Subdomain, End point (mean ± SD) ([2]; FXS, n=12, 10 weeks, p=0.003, listed as acamprosate): 78.9
- Social Responsiveness Scale total score (SRS), End point (mean ± SD) ([2]; FXS, n=12, 10 weeks): 76.4 ± 26.8 and 76.42 ± 26.8
- Social Responsiveness Scale total score (SRS), End point (mean ± SD) [2, 4]: 76.4
- Effect Size, ABC-H [2, 5]: 0.64
- Effect Size, ABC-SA [2, 5]: 0.64
- Effect Size, ABC-SW [2, 5]: 0.81
- Effect Size, ADHD-RS [2, 5]: 0.65
- Effect Size, CGI-S [2, 5]: 2.0
- Effect Size, SRS total score [2, 5]: 0.54
- Effect Size, VABS Communication Domain [2, 5]: 0.32
- Effect Size, VABS Expressive Communication Subdomain [2, 5]: 0.4
- Effect Size, VABS Communication Domain ([2]; FXS, mean change from baseline to endpoint divided by SD at baseline, listed as acamprosate): 0.3
- youth judged responders to acamprosate (of those treated) ([2]; youth with FXS, pre-specified indicators of clinical response): 9 of 12
- direct binding to glutamate or GABA receptors subtypes [3]: no direct binding
